The subject of one data set is Liver microsomes. The experiment in a line: Half life in rat liver microsomes by LC/MS analysis. The data set is classed as ADME, Microsome.
In data set [1] the target is T1, Mitogen-activated protein kinase 8 (Homo sapiens, UniProt P45983). The experiment in a line: Inhibition of JNK1 by TR-FRET assay.
For a further data set, the system named is Plasma. The experiment in a line: Metabolic stability in rat plasma after 60 mins by LC/MS analysis. The data set is classed as ADME, cell-free. The conditions noted are these: 1 h.
Data set [2] addresses 5'-AMP-activated protein kinase catalytic subunit alpha-1 (Homo sapiens) (UniProt Q13131). The data set is described as follows: Inhibition of AMPK A1 at 25 uM by TR-FRET assay.
The target in data set [3] is Sphingosine kinase 1 (Homo sapiens) (UniProt Q9NYA1). The data set is described as follows: Inhibition of SPHK1 at 25 uM by TR-FRET assay.
Data set [4] concerns the target Phosphatidylinositol 4,5-bisphosphate 3-kinase catalytic subunit alpha isoform (Homo sapiens) (UniProt P42336). The data set is described as follows: Inhibition of PI3Kalpha at 25 uM by TR-FRET assay.
Data set [5] has as its target Serine/threonine-protein kinase pim-1 (Homo sapiens) (UniProt P11309). The data set is described as follows: Inhibition of PIM1 at 25 uM by TR-FRET assay.
In data set [6] the target is Aurora kinase A (Homo sapiens) (UniProt O14965). The data set is described as follows: Inhibition of AURK A at 25 uM by TR-FRET assay.
In data set [7] the target is Inhibitor of nuclear factor kappa-B kinase subunit alpha (Homo sapiens) (UniProt O15111). The data set is described as follows: Inhibition of CHUK at 25 uM by TR-FRET assay.
The target of data set [8] is Serine/threonine-protein kinase mTOR (Homo sapiens) (UniProt P42345). The data set is described as follows: Inhibition of FRAP1 at 25 uM by TR-FRET assay.
Data set [9] deals with Serine/threonine-protein kinase Chk1 (Homo sapiens) (UniProt O14757). The data set is described as follows: Inhibition of CHEK1 at 25 uM by TR-FRET assay.
Data set [10] addresses Serine/threonine-protein kinase Nek1 (Homo sapiens) (UniProt Q96PY6). The data set is described as follows: Inhibition of NEK1 at 25 uM by TR-FRET assay.
Data set [11] addresses Mitogen-activated protein kinase 1 (Homo sapiens) (UniProt P28482). The experiment in a line: Inhibition of MAPK1 at 25 uM by TR-FRET assay.
Data set [12] deals with Glycogen synthase kinase-3 alpha (Homo sapiens) (UniProt P49840). The data set is described as follows: Inhibition of GSK3alpha at 25 uM by TR-FRET assay.
For data set [13], the target named is Mitogen-activated protein kinase 10 (Homo sapiens) (UniProt P53779). The data set is described as follows: Inhibition of JNK3 at 25 uM by TR-FRET assay.
The target of data set [14] is Cyclin-dependent kinase 1 (Homo sapiens) (UniProt P06493). The data set is described as follows: Inhibition of CDK1 at 25 uM by TR-FRET assay.
The target of data set [15] is Serine/threonine-protein kinase B-raf (Homo sapiens) (UniProt P15056). The data set is described as follows: Inhibition of BRAF at 25 uM by TR-FRET assay.
Data set [16] has as its target Rho-associated protein kinase 1 (Homo sapiens) (UniProt Q13464). The experiment in a line: Inhibition of ROCK1 at 25 uM by TR-FRET assay.
The target of data set [17] is RAC-alpha serine/threonine-protein kinase (Homo sapiens) (UniProt P31749). The data set is described as follows: Inhibition of AKT1 at 25 uM by TR-FRET assay.
For data set [18], the target named is Dual specificity mitogen-activated protein kinase kinase 1 (Homo sapiens) (UniProt Q02750). The data set is described as follows: Inhibition of MAK2K1 at 25 uM by TR-FRET assay.
Data set [19] addresses Mitogen-activated protein kinase kinase kinase kinase 2 (Homo sapiens) (UniProt Q12851). The experiment in a line: Inhibition of MAP4K2 at 25 uM by TR-FRET assay.
For data set [20], the target named is Mitogen-activated protein kinase 14 (Homo sapiens) (UniProt Q16539). The data set is described as follows: Inhibition of MAPK14 at 25 uM by direct TR-FRET assay.
For data set [21], the target named is Mitogen-activated protein kinase 3 (Homo sapiens) (UniProt P27361). The experiment in a line: Inhibition of MAPK3 at 25 uM by TR-FRET assay.
The target of data set [22] is T1, Mitogen-activated protein kinase 8. The experiment in a line: Displacement of biotin-labeled JIP1 peptide from JNK1 by DELFIA assay.
Data set [23] concerns the target Mitogen-activated protein kinase kinase kinase 9 (Homo sapiens) (UniProt P80192). The data set is described as follows: Inhibition of MAPK3K9 at 25 uM by TR-FRET assay.
Data set [24] deals with Mitogen-activated protein kinase 14 (Homo sapiens) (UniProt Q16539). The experiment in a line: Inhibition of MAPK14 at 25 uM by TR-FRET assay.
In data set [25] the target is T2, Mitogen-activated protein kinase 9 (Homo sapiens, UniProt P45984). The data set is described as follows: Binding affinity to JNK2.
In data set [26] the target is Protein kinase C alpha type (Homo sapiens) (UniProt P17252). The data set is described as follows: Inhibition of PRKCA at 25 uM by TR-FRET assay.
For data set [27], the target named is T2, Mitogen-activated protein kinase 9. The experiment in a line: Inhibition of JNK2 at 25 uM by TR-FRET assay.
Data set [28] concerns the target T1, Mitogen-activated protein kinase 8. The conditions noted are these: 25 uM.
Description: Inhibition of JNK1 at 25 uM by TR-FRET assay
Data set [29] addresses Calcium/calmodulin-dependent protein kinase type 1 (Homo sapiens) (UniProt Q14012). The data set is described as follows: Inhibition of CAMK1 at 25 uM by TR-FRET assay.
Data set [30] concerns the target 3-phosphoinositide-dependent protein kinase 1 (Homo sapiens) (UniProt O15530). The data set is described as follows: Inhibition of PDK1 at 25 uM by direct TR-FRET assay.

T1 sequence (P45983 whole entry): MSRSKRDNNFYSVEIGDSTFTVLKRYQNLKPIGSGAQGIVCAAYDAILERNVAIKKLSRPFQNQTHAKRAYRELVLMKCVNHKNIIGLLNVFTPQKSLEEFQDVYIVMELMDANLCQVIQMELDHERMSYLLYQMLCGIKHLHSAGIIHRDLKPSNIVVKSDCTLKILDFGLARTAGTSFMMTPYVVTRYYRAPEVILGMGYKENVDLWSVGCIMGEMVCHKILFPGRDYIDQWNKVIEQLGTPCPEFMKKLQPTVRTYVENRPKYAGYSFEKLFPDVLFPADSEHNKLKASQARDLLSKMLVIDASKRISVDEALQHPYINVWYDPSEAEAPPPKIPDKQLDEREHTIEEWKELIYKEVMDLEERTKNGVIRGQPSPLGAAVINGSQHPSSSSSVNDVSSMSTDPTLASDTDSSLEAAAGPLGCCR
Mitogen-activated protein kinase 14 (Homo sapiens), sequence (Q16539 whole entry): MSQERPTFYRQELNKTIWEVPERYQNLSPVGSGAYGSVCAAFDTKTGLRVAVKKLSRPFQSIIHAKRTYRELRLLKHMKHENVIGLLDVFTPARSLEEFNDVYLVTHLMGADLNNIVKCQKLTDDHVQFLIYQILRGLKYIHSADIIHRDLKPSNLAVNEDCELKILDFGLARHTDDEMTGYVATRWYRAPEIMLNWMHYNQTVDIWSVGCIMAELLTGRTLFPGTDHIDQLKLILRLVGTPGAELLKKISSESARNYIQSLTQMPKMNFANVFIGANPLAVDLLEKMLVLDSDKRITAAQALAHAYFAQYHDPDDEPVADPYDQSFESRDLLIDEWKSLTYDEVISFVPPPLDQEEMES
RAC-alpha serine/threonine-protein kinase (Homo sapiens), sequence (P31749 whole entry): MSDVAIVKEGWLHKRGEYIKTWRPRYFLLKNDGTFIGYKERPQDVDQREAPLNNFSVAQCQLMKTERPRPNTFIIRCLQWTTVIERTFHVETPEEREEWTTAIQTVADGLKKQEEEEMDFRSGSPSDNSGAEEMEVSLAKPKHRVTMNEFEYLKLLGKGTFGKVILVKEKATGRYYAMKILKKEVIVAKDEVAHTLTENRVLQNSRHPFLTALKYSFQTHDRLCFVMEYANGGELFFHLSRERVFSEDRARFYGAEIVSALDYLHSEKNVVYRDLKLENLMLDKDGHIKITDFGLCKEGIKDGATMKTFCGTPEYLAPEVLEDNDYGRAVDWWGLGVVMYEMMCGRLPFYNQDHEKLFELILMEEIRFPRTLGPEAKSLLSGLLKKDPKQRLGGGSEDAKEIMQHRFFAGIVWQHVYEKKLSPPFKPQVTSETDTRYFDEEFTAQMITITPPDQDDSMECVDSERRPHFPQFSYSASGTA
Glycogen synthase kinase-3 alpha (Homo sapiens), sequence (P49840 2-483 limits assumed): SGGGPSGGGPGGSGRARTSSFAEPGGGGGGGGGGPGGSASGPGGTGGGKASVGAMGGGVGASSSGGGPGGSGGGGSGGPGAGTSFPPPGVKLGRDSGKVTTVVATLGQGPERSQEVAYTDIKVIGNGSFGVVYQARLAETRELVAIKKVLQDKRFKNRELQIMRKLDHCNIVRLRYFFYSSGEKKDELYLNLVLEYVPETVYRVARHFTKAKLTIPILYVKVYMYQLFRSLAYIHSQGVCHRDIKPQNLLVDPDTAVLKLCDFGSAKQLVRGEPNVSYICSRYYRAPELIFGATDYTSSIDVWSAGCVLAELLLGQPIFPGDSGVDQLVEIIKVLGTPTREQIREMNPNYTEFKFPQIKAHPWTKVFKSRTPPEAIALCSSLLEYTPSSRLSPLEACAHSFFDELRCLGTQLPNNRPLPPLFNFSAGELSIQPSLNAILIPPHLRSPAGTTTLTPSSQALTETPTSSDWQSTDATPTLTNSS
Serine/threonine-protein kinase pim-1 (Homo sapiens), sequence (P11309 whole entry, looked up): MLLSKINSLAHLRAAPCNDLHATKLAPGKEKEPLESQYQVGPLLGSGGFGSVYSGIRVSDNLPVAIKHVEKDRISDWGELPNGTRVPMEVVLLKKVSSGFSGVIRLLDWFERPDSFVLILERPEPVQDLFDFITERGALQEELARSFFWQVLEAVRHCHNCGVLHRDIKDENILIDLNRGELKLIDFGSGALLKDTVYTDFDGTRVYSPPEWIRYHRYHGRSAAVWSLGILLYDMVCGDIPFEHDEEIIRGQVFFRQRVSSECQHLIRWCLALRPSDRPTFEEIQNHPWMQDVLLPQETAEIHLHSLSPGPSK
5'-AMP-activated protein kinase catalytic subunit alpha-1 (Homo sapiens), sequence (Q13131 whole entry, looked up): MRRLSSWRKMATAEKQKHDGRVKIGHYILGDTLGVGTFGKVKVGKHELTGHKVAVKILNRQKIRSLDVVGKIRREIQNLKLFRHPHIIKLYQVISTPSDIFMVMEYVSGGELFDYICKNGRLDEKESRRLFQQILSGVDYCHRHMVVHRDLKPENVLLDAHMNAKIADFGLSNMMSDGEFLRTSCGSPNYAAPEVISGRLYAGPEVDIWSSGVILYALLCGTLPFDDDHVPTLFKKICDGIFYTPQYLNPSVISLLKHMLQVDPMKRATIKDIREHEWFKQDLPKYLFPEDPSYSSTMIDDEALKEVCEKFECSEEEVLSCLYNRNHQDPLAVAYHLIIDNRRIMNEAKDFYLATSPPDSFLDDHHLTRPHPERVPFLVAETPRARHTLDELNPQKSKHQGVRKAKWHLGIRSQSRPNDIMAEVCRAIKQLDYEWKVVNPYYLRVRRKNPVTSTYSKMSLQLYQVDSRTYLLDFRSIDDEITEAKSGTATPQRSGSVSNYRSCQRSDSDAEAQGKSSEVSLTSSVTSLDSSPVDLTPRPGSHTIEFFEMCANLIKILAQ
Serine/threonine-protein kinase B-raf (Homo sapiens), sequence (P15056 whole entry): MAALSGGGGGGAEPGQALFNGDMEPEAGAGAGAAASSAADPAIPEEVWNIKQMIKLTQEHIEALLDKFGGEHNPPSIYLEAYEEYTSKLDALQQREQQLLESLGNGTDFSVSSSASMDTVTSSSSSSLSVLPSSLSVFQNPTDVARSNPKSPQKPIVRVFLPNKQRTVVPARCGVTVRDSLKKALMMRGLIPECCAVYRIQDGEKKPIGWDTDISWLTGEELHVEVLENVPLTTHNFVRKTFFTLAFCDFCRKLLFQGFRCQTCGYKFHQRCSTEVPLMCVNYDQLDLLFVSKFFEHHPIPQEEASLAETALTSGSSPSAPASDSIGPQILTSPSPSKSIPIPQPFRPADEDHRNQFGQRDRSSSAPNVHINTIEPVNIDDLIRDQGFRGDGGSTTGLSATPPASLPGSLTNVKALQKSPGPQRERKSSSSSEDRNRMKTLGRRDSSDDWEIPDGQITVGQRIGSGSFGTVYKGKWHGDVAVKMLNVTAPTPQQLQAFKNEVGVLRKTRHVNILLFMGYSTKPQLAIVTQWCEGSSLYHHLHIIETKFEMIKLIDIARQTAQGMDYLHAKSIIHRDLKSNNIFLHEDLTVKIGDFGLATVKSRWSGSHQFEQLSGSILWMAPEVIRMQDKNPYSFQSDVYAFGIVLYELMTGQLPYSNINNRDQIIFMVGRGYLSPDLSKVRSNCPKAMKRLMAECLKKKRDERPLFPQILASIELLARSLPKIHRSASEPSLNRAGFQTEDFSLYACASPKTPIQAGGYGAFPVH
3-phosphoinositide-dependent protein kinase 1 (Homo sapiens), sequence (O15530 whole entry): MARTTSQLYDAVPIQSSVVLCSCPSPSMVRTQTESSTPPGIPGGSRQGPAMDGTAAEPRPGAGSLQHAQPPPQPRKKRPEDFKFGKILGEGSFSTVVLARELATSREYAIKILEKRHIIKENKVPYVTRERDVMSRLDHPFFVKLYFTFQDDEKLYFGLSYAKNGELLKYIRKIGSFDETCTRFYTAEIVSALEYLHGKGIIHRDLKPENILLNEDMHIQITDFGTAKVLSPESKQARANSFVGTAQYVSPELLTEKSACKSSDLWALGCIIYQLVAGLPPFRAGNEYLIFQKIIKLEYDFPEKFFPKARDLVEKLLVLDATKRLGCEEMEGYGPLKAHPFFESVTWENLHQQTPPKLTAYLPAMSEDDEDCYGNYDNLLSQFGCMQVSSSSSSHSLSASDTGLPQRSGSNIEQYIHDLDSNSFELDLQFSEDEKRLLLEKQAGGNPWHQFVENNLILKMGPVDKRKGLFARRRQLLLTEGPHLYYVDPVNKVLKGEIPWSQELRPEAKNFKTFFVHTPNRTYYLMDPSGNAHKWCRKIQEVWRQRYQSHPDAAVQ
Mitogen-activated protein kinase kinase kinase kinase 2 (Homo sapiens), sequence (Q12851 whole entry): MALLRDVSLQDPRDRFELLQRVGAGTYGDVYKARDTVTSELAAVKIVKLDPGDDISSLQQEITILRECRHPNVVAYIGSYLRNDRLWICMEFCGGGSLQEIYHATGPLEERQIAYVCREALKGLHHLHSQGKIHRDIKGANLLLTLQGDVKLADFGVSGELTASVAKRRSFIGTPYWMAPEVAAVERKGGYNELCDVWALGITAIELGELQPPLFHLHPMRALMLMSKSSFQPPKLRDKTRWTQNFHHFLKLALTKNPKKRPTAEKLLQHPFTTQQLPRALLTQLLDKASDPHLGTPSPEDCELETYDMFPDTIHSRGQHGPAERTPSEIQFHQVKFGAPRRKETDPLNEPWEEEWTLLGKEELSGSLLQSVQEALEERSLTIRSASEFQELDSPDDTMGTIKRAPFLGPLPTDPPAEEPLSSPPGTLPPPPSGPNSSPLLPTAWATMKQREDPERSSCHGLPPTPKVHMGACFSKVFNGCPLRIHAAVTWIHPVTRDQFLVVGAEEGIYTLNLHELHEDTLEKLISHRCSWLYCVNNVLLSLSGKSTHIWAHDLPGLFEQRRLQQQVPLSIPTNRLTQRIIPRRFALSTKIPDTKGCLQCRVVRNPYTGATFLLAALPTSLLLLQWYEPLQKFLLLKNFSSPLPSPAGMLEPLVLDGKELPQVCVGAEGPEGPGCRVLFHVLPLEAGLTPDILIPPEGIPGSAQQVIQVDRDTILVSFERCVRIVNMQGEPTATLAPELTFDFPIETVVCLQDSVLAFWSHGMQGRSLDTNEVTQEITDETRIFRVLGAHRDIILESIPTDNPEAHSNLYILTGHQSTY

On to `NC(=O)c1ccsc1NC(=O)Cc1cccc(Br)c1`, for which the t1/2 in the data set with Liver microsomes stood at 24 min. This compound also registered an IC50 in [1] of 1.8 µM. Moreover, in the data set with Plasma, the Stability result is “Stable”.

Turning to `NC(=O)c1ccsc1NC(=O)Cc1ccccc1Cl`, in the data set with Liver microsomes, the t1/2 turned out to be 27 min. The compound also registered an IC50 in [1] of 1.4 µM. The Stability result in the data set with Plasma is on record as “Stable”.

In the case of `NC(=O)c1ccsc1NC(=O)Cc1csc2ccccc12`, the inhibition was found to be 0% in data set [2]; 1% in [3]; 4% in data set [4]; 0% in [5]; 0% in [6]; 0% in [7]. The inhibition in data set [8] is 0%; in data set [9] it was 0%; in [10] it was 0%; in data set [11], 4%; in data set [12], 16%; in [13], 18%. Also, the inhibition in data set [14] amounted to 3%; in data set [15] it was 2%; in data set [16], 0%; in data set [17] it was 5%; in data set [18] it was 0%; in data set [19], 1%. The inhibition is 2% in [20]; 3% in data set [21]; 0% in data set [23]; 11% in [24]; 0% in data set [26]; 72% in [27]. Further, the inhibition in [28] was determined as 79%; in data set [29], 2%; in data set [30] it was 0%. Besides, the IC50 in data set [1] came to 1.3 µM; in data set [22], 4.62 µM. In addition, in the data set on Plasma, the Stability result is listed as “Stable”. The compound further returned a Kd in data set [25] of 0.64 µM.

As for `N#Cc1ccsc1NC(=O)Cc1cccc2ccccc12`, the IC50 in [1] is over 100 µM.

In turn, `COc1ccc(CC(=O)Nc2sccc2C(N)=O)cc1OC` yielded an IC50 in [1] of over 25 µM.

In turn, `NC(=O)c1ccsc1NC(=O)Cc1c(F)c(F)c(F)c(F)c1F` returned an IC50 in [1] of over 50 µM.

Compound `CC1CN(CC(=O)Nc2sccc2C(N)=O)CC(C)O1` (configuration not stated) had an IC50 in data set [1] of 65.3 µM.

As to `Cc1ccc(CC(=O)Nc2sccc2C(N)=O)cc1`, in data set [1], the IC50 is 4.3 µM.

`COC(=O)c1ccsc1NC(=O)Cc1cccc2ccccc12` yielded an IC50 in data set [1] of over 100 µM.

With `Cc1cccc(CC(=O)Nc2sccc2C(N)=O)c1`, the midpoint of inhibition in data set [1], the IC50, lay at 5.4 µM.

Turning to `NC(=O)c1ccsc1NC(=O)Cc1csc(-c2ccccc2)n1`, the IC50 in data set [1] was over 25 µM.

As for `Cc1cc(C)cc(CC(=O)Nc2sccc2C(N)=O)c1`, the IC50 in data set [1] amounted to 2.7 µM.

The compound `NC(=O)c1ccsc1NC(=O)CN1CCN(C(=O)C2CC2)CC1` returned an IC50 in data set [1] of 83.5 µM.

Take `NC(=O)c1ccsc1NC(=O)Cc1ccc2ccccc2c1`: in data set [1], the IC50 was over 25 µM.

On to `NC(=O)c1ccsc1NC(=O)Cc1ccccc1I`, for which 3.4 µM corresponded to half-maximal inhibition in [1] (IC50).

In data set [1], `NC(=O)c1ccsc1NC(=O)Cc1ccc(Cl)cc1` gave an IC50 of 18.7 µM.

In turn, `NC(=O)c1ccsc1NC(=O)Cc1ccccc1` came in with an IC50 in data set [1] of 3.6 µM.

As to `NC(=O)c1ccsc1NC(=O)Cc1ccc2c(c1)CCCC2`, the IC50 in data set [1] worked out at 3.6 µM.

As to `NC(=O)c1ccsc1NC(=O)Cc1ccc2ccc3cccc4ccc1c2c34`, in data set [1], the IC50 is over 50 µM.

With `N#Cc1ccc(CC(=O)Nc2sccc2C(N)=O)cc1`, 3.4 µM corresponded to half-maximal inhibition in data set [1] (IC50).

In turn, `Cc1ccccc1CC(=O)Nc1sccc1C(N)=O` showed an IC50 in [1] of 6 µM.

In data set [1], `NC(=O)c1ccsc1NC(=O)Cc1ccc(-c2ccccc2)cc1` displayed an IC50 of over 50 µM.

The compound `NC(=O)c1ccsc1NC(=O)/C=C/c1ccccc1` gave an IC50 in [1] of over 100 µM.

In turn, `NC(=O)c1ccsc1NC(=O)Cc1ccc2c(c1)OCO2` registered an IC50 in data set [1] of 1.8 µM.

Compound `NC(=O)c1ccsc1NC(=O)Cc1cccc(I)c1` came in with an IC50 in data set [1] of 1.8 µM.

`NC(=O)c1ccsc1NC(=O)Cc1cc(F)cc(F)c1`: in [1], 8.2 µM corresponded to half-maximal inhibition (IC50).

In data set [1], `NC(=O)c1ccsc1NC(=O)Cc1cccnc1` had an IC50 of 8.1 µM.

The compound `NC(=O)c1ccsc1NC(=O)Cc1nc2ccccc2[nH]1` had an IC50 in data set [1] of over 25 µM.

Values taken from ChEMBL document CHEMBL1764959, “Design, synthesis, and structure-activity relationship studies of thiophene-3-carboxamide derivatives as dual inhibitors of the c-Jun N-terminal kinase” (Bioorg Med Chem, 2011).
